Laboratory results reported in patent US9351989B2, “Substituted purine nucleosides, phosphoroamidate and phosphorodiamidate derivatives for treatment of viral infections” (INHIBITEX, INC., priority 2010, dated 2016).
pIC50: −log10 of the molar value.

Tests used:
[1] = tested on: HCV replicon (Genotype 1b); assay: Luciferase genotype 1b replicon potency assay; assay type: cell-based; conditions: Hepatitis C virus, Huh-7; luciferase-reporter genotype 1b subgenomic replicon cell line (Huh7); Renilla luciferase reporter activity
Experimental: (§1) Further to the above Examples, representative compounds, prepared according to the examples were tested for potency in an HCV replicon assay (Genotype 1b) for activity against the virus (EC50) and toxicity to the cells (CC50).
Huh7 Replicon Cell Lines and Cell Culture Conditions:
(§2) A luciferase-reporter genotype 1b subgenomic replicon cell line, and a genotype 1a full-length replicon cell line were obtained from Apath, LLC, Brooklyn, N.Y.: All cell lines were passaged twice a week by splitting 4 or 6 fold. Cells were maintained in DMEM-high glucose medium (HyClone, Logan, Utah) supplemented with 9% FBS (HyClone), 2 mM glutamine (Invitrogen, Carlsbad, Calif.), 100 U/mL PenStrep (Invitrogen). Media also contained 0.25 mg/mL of the antibiotic G-418 to maintain stable expression of the replicon (Invitrogen). Incubation was performed at 37° C. in 5% CO2 atmosphere. Replicon cell lines were used until they accumulated 15-to-18 passages, after which cells were restarted from the frozen stock. Seeding cell counts were routinely determined using an automatic Cedex HiRes cell counter (Flownomics Analytical Instruments, Madison, Wis.) or manually using INCYTO C—Chip™ Disposable Hemacytometers (Fisher Scientific, Pittsburgh, Pa.).
The anti-HCV assays were done accordingly:
Luciferase Genotype 1b Replicon Potency Assay.
Replicon cells were seeded into white 96-well plates (Nunc/VWR) at a density of 2×10^4 cells/well in medium without G-418. A Stacker Multidrop Liquid Dispenser (MTX Lab Systems, Vienna, Va.) was employed to ensure uniform and fast cell seeding into multiple plates. 18-24 h after cell plating, inhibitors were added and cells were incubated for additional 24, 48, or 72 h (as indicated). Compounds were tested in triplicates and quadruplicates at 3× or 4× serial dilutions over a range of 0.0001-to-10 μM concentrations. HCV replication was monitored by Renilla luciferase reporter activity assay using Renilla luciferase reporter (Promega, Madison, Wis.) and a Veritas Luminometer (Turner Biosystems, Sunnyvale, Calif.). 50% and 90% inhibitory concentration (IC50 and IC90) values were calculated as the concentration of compound that results correspondingly in 50% and 90% decreases in the reporter expression as compared to untreated cells. The values were determined by non-linear regression (four-parameter sigmoidal curve fitting) analysis.

[2] = Cytotoxicity assay (CellTiter-Glo); assay type: cell-based; conditions: human, toxicity to the cells, 72 h incubation, CellTiter-Glo cell viability
Experimental: as §1, §2
The cell cytotoxicity assay data was obtained as described below:
Cells were seeded into 96-well plates at a density of 2×10^4 cells per well. 24 h after cell plating, 11 serial 2× compound dilutions, starting with 100 μM, were applied to the testing plates (3 repeats per compound dilution). Each testing plate was run with a “no-compound” control. Incubation with compounds was continued at 37° C. in a CO2 incubator for 72 h. To determine cell viability, the CellTiter-Glo® assay (Promega, Madison, Wis.) was performed according to the manufacturer's protocol. The compound concentration resulting in 50% luminescent signal was reported as the CC50 concentration.

[3] = Huh7 HCV genotype 1b replicon cells

Row | Compound | pIC50 [1] | CC50 at 72 h [2] | CC50 at 72 h [2, 3]
1 | COc1nc(N)nc2c1nc(I)n2[C@@H]1O[C@H](COP(=O)(N[C@@H](C)C(=O)OC2CCCCC2)Oc2cccc3ccccc23)[C@@H](O)[C@@]1(C)O (stereo partly drawn) [Example 17, (2S)-Cyclohexyl 2-((((2R,3R,4R,5R)-5-(2-Amino-8-iodo-6-methoxy-9H-purin-9-yl)-3,4-dihydroxy-4-methyltetrahydrofuran-2-yl)methoxy)(naphthalen-1-yloxy)phosphorylamino)propanoate] | 7.80 | 11 µM | –
2 | COc1nc(N)nc2c1nc(I)n2[C@@H]1O[C@H](COP(=O)(N[C@@H](C)C(=O)OCCC(C)(C)C)N[C@@H](C)C(=O)OCCC(C)(C)C)[C@@H](O)[C@@]1(C)O [Example 22, (2S,2′S)-Bis(3,3-Dimethylbutyl) 2,2′-((((2R,3R,4R,5R)-5-(2-Amino-8-iodo-6-methoxy-9H-purin-9-yl)-3,4-dihydroxy-4-methyltetrahydrofuran-2-yl)methoxy)phosphoryl)bis(azanediyl)dipropanoate] | 7.14 | – | 11 µM
3 | CCCOC(=O)[C@H](C)NP(=O)(OC[C@H]1O[C@@H](n2c(I)nc3c(OC)nc(N)nc32)[C@](C)(O)[C@@H]1O)Oc1cccc2ccccc12 (stereo partly drawn) [Example 9, (2S)-Propyl 2-((((2R,3R,4R,5R)-5-(2-Amino-8-iodo-6-methoxy-9H-purin-9-yl)-3,4-dihydroxy-4-methyltetrahydrofuran-2-yl)methoxy)(naphthalen-1-yloxy)phosphorylamino)propanoate] | 8.05 | 6 µM | –
4 | COc1nc(N)nc2c1nc(I)n2[C@@H]1O[C@H](COP(=O)(N[C@@H](C)C(=O)OC2CCCC2)Oc2cccc3ccccc23)[C@@H](O)[C@@]1(C)O (stereo partly drawn) [Example 16, (2S)-Cyclopentyl 2-((((2R,3R,4R,5R)-5-(2-Amino-8-iodo-6-methoxy-9H-purin-9-yl)-3,4-dihydroxy-4-methyltetrahydrofuran-2-yl)methoxy)(naphthalen-1-yloxy)phosphorylamino)propanoate] | 7.92 | 13 µM | –
5 | COc1nc(N)nc2c1nc(I)n2[C@@H]1O[C@H](COP(=O)(N[C@@H](C)C(=O)OCc2ccccc2)N[C@@H](C)C(=O)OCc2ccccc2)[C@@H](O)[C@@]1(C)O [Example 21, (2S,2′S)-Benzyl 2,2′-((((2R,3R,4R,5R)-5-(2-Amino-8-iodo-6-methoxy-9H-purin-9-yl)-3,4-dihydroxy-4-methyltetrahydrofuran-2-yl)methoxy)phosphoryl)bis(azanediyl)dipropanoate] | 7.34 | – | 22 µM
6 | COc1nc(N)nc2c1nc(Br)n2[C@@H]1O[C@H](COP(=O)(N[C@@H](C)C(=O)OCC(C)(C)C)Oc2cccc3ccccc23)[C@@H](O)[C@@]1(C)O (stereo partly drawn) [Example 13, (2S)-Neopentyl 2-((((2R,3R,4R,5R)-5-(2-Amino-8-bromo-6-methoxy-9H-purin-9-yl)-3,4-dihydroxy-4-methyltetrahydrofuran-2-yl)methoxy)(naphthalen-1-yloxy)phosphorylamino)propanoate] | 4.82 | 60 µM | –
